Data reported in ChEMBL document CHEMBL1201862, “PubChem BioAssay data set” (2004).
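Method: 48-hour compound exposure of cells in 96-well plates, five concentrations, linear interpolation of endpoints. GI50 is the concentration that inhibits growth by half.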 Calls of active or inactive are those of the source. Cut-off read from the data, not from the text of the source: active = GI50 up to about 1.1 µM and inactive = higher.

Columns and labels:
Test in all cases: inhibition of tumour cell growth, NCI panel, 48 h
A498 = tested on: A498
ACHN = tested on: ACHN
HCT-116 = tested on: HCT-116
HCT-15 = tested on: HCT-15
HT-29 = tested on: HT-29
LOX IMVI = tested on: LOX IMVI
M14 = tested on: M14
MDA-MB-435 = tested on: MDA-MB-435
NCI-H522 = tested on: NCI-H522
NCI/ADR-RES = tested on: NCI/ADR-RES
OVCAR-3 = tested on: OVCAR-3
OVCAR-8 = tested on: OVCAR-8
SF-268 = tested on: SF-268
SK-MEL-28 = tested on: SK-MEL-28
SN12C = tested on: SN12C
SNB-19 = tested on: SNB-19
IGROV-1 = tested on: IGROV-1
SK-MEL-2 = tested on: SK-MEL-2
HOP-62 = tested on: HOP-62
OVCAR-5 = tested on: OVCAR-5

| SMILES | GI50 (A498) | GI50 (ACHN) | GI50 (HCT-116) | GI50 (HCT-15) | GI50 (HT-29) | GI50 (LOX IMVI) | GI50 (M14) | GI50 (MDA-MB-435) | GI50 (NCI-H522) | GI50 (NCI/ADR-RES) | GI50 (OVCAR-3) | GI50 (OVCAR-8) | GI50 (SF-268) | GI50 (SK-MEL-28) | GI50 (SN12C) | GI50 (SNB-19) | GI50 (IGROV-1) | GI50 (SK-MEL-2) | GI50 (HOP-62) | GI50 (OVCAR-5) |
| --- | --- | --- | --- | --- | --- | --- | --- | --- | --- | --- | --- | --- | --- | --- | --- | --- | --- | --- | --- | --- |
| Cc1ccc(S(=O)(=O)N2CCCN(S(=O)(=O)c3ccc(C)cc3)CC2)cc1 | 2.75 µM (inactive) | > 100 µM (inactive) | > 100 µM (inactive) | > 100 µM | > 100 µM (inactive) | 0.0578 µM (active) | > 100 µM (inactive) | > 100 µM (inactive) | > 100 µM (inactive) | > 100 µM (inactive) | > 100 µM (inactive) | > 100 µM (inactive) | > 100 µM (inactive) | > 100 µM (inactive) | > 100 µM (inactive) | > 100 µM (inactive) | – | – | – | – |
| C/C(=N\NC(=S)N1CCN(C2CCCCCC2)CC1)c1ccccn1 | 1.49 µM (inactive) | 0.145 µM (active) | 0.01 µM (active) | 0.01 µM | < 0.0343 µM (active) | 0.01 µM (active) | 0.01 µM (active) | 0.161 µM (active) | < 0.0253 µM (active) | 0.01 µM (active) | 0.01 µM (active) | 0.01 µM (active) | 0.337 µM (active) | 0.238 µM (active) | 0.111 µM (active) | 1.71 µM (inactive) | 0.01 µM (active) | 0.481 µM (active) | – | – |
| C/C(=N\NC(=S)N(C)CCN(C)C(=S)N/N=C(\C)c1ccccn1)c1ccccn1 | 0.565 µM (active) | 0.366 µM (active) | 0.281 µM (active) | 0.45 µM | 0.224 µM (active) | 0.811 µM (active) | > 100 µM (inactive) | > 100 µM (inactive) | 0.731 µM (active) | 0.346 µM (active) | 0.174 µM (active) | 0.345 µM (active) | 0.321 µM (active) | 1.73 µM (inactive) | 1.05 µM (active) | 3.04 µM (inactive) | 0.465 µM (active) | 10.1 µM (inactive) | 1.67 µM (inactive) | 5.9 µM (inactive) |
| CCN(CC)C(=O)CCN1CC1 | > 10 µM (inactive) | > 10 µM (inactive) | > 10 µM (inactive) | > 10 µM | > 10 µM (inactive) | > 10 µM (inactive) | > 10 µM (inactive) | > 10 µM (inactive) | > 10 µM (inactive) | > 10 µM (inactive) | > 10 µM (inactive) | > 10 µM (inactive) | > 10 µM (inactive) | > 10 µM (inactive) | > 10 µM (inactive) | > 10 µM (inactive) | > 10 µM (inactive) | > 10 µM (inactive) | > 10 µM (inactive) | > 10 µM (inactive) |
| Cc1nc2[nH]ncn2c(=O)c1CCCl | > 10 µM (inactive) | > 10 µM (inactive) | > 10 µM (inactive) | > 10 µM | > 10 µM (inactive) | > 10 µM (inactive) | > 10 µM (inactive) | > 10 µM (inactive) | > 10 µM (inactive) | > 10 µM (inactive) | – | > 10 µM (inactive) | > 10 µM (inactive) | > 10 µM (inactive) | > 10 µM (inactive) | > 10 µM (inactive) | > 10 µM (inactive) | > 10 µM (inactive) | > 10 µM (inactive) | > 10 µM (inactive) |
| COc1cc([N+](=O)[O-])ccc1NC1=CC(=O)CCC1 | > 100 µM (inactive) | > 100 µM (inactive) | > 100 µM (inactive) | > 100 µM | > 100 µM (inactive) | > 100 µM (inactive) | > 100 µM (inactive) | > 100 µM (inactive) | – | > 100 µM (inactive) | > 100 µM (inactive) | > 100 µM (inactive) | > 100 µM (inactive) | 59.4 µM (inactive) | > 100 µM (inactive) | > 100 µM (inactive) | > 100 µM (inactive) | > 100 µM (inactive) | > 100 µM (inactive) | > 100 µM (inactive) |
| O=C(NC1C(=O)NC(CCc2ccccc2)NC1=O)OCc1ccccc1 (stereo unspecified) | > 100 µM (inactive) | > 100 µM (inactive) | > 100 µM (inactive) | > 100 µM | > 100 µM (inactive) | > 100 µM (inactive) | > 100 µM (inactive) | > 100 µM (inactive) | > 100 µM (inactive) | > 100 µM (inactive) | > 100 µM (inactive) | > 100 µM (inactive) | > 100 µM (inactive) | > 100 µM (inactive) | > 100 µM (inactive) | > 100 µM (inactive) | > 100 µM (inactive) | – | > 100 µM (inactive) | > 100 µM (inactive) |
